# Source: patent US12325688B2, “Gingerenone A prodrugs as sensotherapeutics and methods of use” (The U.S.A., as Represented by the Secretary, Department of …, priority 2022, dated 2025)
# Entries after “also recorded” stand apart in the source; their conditions may differ.
# Columns and labels:
# Format in all cases: cell-based, human
# [1] = tested on: IR-induced senescent WI-38 fibroblasts; experiment: MTT cell viability assay, senescent cells; settings: for senolytic activity (selective decrease of viability of senescent cells): components at 100 μM, 6-shogaol 3.6 μM, 8-shogaol 33 μM, 6-gingerol 20 μM; for senescent cell viability: D+Q 250 nM dasatinib + 10 μM quercetin, gingerenone A 20 μM, 6-shogaol 72.4 nM
# Description: Cell culture and treatments: WI-38 human diploid fibroblasts (HDFs) were cultured in Dulbecco's modified Eagle's medium (DMEM) supplemented with 10% heat-inactivated fetal bovine serum (FBS), penicillin and streptomycin, and non-essential amino acids at 37° C. in a 5% CO2 incubator. HDFs were rendered senescent by exposure to 10 Gy of ionizing radiation (IR) and then cultured for an additional ten days. Proliferating and senescent WI-38 cells were seeded in triplicate overnight at 2×10^5 cells/well (in 6 well plates) to achieve ˜-60% confluence by the next day. Cells were then treated with the extracts for times indicated. […]
# MTT cell viability: The MTT assay (BioVision Milpitas, CA) was carried out following the manufacturer's protocol. Briefly, the media was gently removed from each well and 50 μl of serum-free medium+50 μl of Solution A were added to each well. The plates were incubated at 37° C. for MTT reduction into formazan for 3 h. Next, 150 μl Solution B was added to each well and the plate was covered with foil and shaken at 600 rpm for 15 min. The absorbance was measured at 590 nm using Enspire, Perkin Elmer Multimode plate reader. […]
# WI-38 fibroblasts were rendered senescent by exposure to ionizing radiation (IR, 10 Gy) and cultured for an additional 10 days. […] Data represent the means and standard error from three biological replicates. The major components of ginger extract, namely 6-gingerol, 8-gingerol, 10-gingerol, 6-shogaol, 8-shogaol, gingerenone A, and zingerone, were screened for their ability to selectively decrease cell viability of senescent cells using the MTT assay (FIG. 10A).
# [2] = tested on: senescent WI-38 fibroblasts; experiment: Secreted SASP cytokines and chemokines (ELISA, multiplex, V-PLEX)
# Description: Secreted protein analysis—ELISA, Luminex Multiplex and V-PLEX: Media was collected at the earliest timepoint (24 h after treatments) to avoid cell death that could interfere with the assay. The media was centrifuged at 1000×g for 5 min to remove debris. The secretion of IL-6 was measured by the Quantikine ELISA Kit (R&D systems) and the expression of pro-inflammatory cytokines and chemokines [IL-6, TNFα, CCL2 (MCP-1), IL-8, IFNβ] was also assessed by multiplex assays (customized Luminex plate, R&D) according to the manufacturer's instructions. The V-PLEX Plus Proinflammatory Panel 1 Human Kit and the Chemokine Panel 1 preparation and detection were carried out following the manufacturer's protocol (Mesoscale Diagnostics) using >80% confluency of proliferating or senescent cells on 24-well plates. Briefly, different concentrations of standards and samples were added to the plates, and they were incubated for 2 h on a microplate shaker. The plates were washed, and the corresponding detection antibody mixture was added to each well and incubated for 1 h with shaking. The plates were washed twice then Read buffer was added to each well. The plates were read on the MESO Quickplex SQ 120 (MSD, Rockville, MD) and protein concentrations were determined using MSD Discovery workbench 4.0. The effects of gingerenone A, 6-shogaol and D+Q on cytokines and chemokines that are known to be part of the senescence-associated secretory phenotype (SASP) were tested. WI-38 fibroblasts were rendered senescent by exposure to ionizing radiation (IR, 10 Gy) and cultured for an additional 10 days. Cells were then treated with gingerenone A (20 μM) and 6-shogaol (72.4 nM) and incubated for 24 h. CCL-2 (MCP-1) and IL-10 were measured using the Bio-plex (Multiplex); IL6 was measured using Quantikine IL-6 (R&D) (FIG. 12A). Data were normalized to cell number/total protein content. Data in graphs represent the means and standard error from three biological replicates. […] Ratios of cleaved pro-caspase 3 to total caspase 3, normalized to ACTB levels, are shown as relative to control proliferating cells. Cytokines (FIG. 13A) and chemokines (FIG. 13B) were measured using the V-plex panel (MSD) after treatment for 24 h with the indicated drugs. Relative secretion was measured as pg/ml vs control normalized on TE. Data in the graphs represent the means and standard error from three biological replicates.
# [3] = tested on: proliferating and senescent WI-38 fibroblasts; experiment: Western blot of apoptotic pathway proteins; settings: 48 h; for expression of anti-apoptotic protein Bcl-XL / levels of pro-apoptotic protein cleaved caspase-3: senescent cells
# Description: Protein analysis: Cells were lysed in RIPA lysis buffer (Pierce, ThermoFisher) containing protease and phosphatase inhibitors (Roche) and incubated on ice for 10 min. The lysates were then sonicated for 5 min and centrifuged for 10 min at 4° C. to remove the insoluble fraction. The remaining supernatant was the whole-cell lysate. Lysates were separated by SDS-polyacrylamide gel electrophoresis (SDS-PAGE) and transferred onto nitrocellulose membranes (Biorad). Incubations with primary antibodies recognizing p21, p53, Beta-Actin (ACTB) (Santa Cruz Biotechnology), as well as caspase-3 (Abcam) and Bcl-XL (Cell Signaling) were followed by incubations with the appropriate secondary antibodies conjugated with horseradish peroxidase (GE Healthcare). Signals were developed using Enhanced Chemiluminescence (ECL) and acquired by using the ChemiDoc MP Imaging System (BioRad).
# The effects of gingerenone A, 6-shogaol and D+Q on cytokines and chemokines that are known to be part of the senescence-associated secretory phenotype (SASP) were tested. WI-38 fibroblasts were rendered senescent by exposure to ionizing radiation (IR, 10 Gy) and cultured for an additional 10 days. Cells were then treated with gingerenone A (20 μM) and 6-shogaol (72.4 nM) and incubated for 24 h. CCL-2 (MCP-1) and IL-10 were measured using the Bio-plex (Multiplex); IL6 was measured using Quantikine IL-6 (R&D) (FIG. 12A). Data were normalized to cell number/total protein content. Data in graphs represent the means and standard error from three biological replicates. […] Ratios of cleaved pro-caspase 3 to total caspase 3, normalized to ACTB levels, are shown as relative to control proliferating cells. Cytokines (FIG. 13A) and chemokines (FIG. 13B) were measured using the V-plex panel (MSD) after treatment for 24 h with the indicated drugs. Relative secretion was measured as pg/ml vs control normalized on TE. Data in the graphs represent the means and standard error from three biological replicates.
# To determine whether gingerenone A and 6-shogaol might influence the apoptotic pathway, their effect on the levels of cleaved caspase-3 (pro-apoptotic marker), and Bcl-XL (anti-apoptotic protein) (FIG. 12B) was tested. […] However, D+Q, gingerenone A, and 6-shogaol all reduced the expression of the anti-apoptotic protein Bcl-XL in senescent cells (FIG. 12B, right).
# [4] = tested on: proliferating WI-38 fibroblasts; experiment: MTT cell viability assay, proliferating cells; settings: 48 h; D+Q 250 nM dasatinib + 10 μM quercetin, gingerenone A 20 μM, 6-shogaol 72.4 nM
# Description: Cell culture and treatments: WI-38 human diploid fibroblasts (HDFs) were cultured in Dulbecco's modified Eagle's medium (DMEM) supplemented with 10% heat-inactivated fetal bovine serum (FBS), penicillin and streptomycin, and non-essential amino acids at 37° C. in a 5% CO2 incubator. HDFs were rendered senescent by exposure to 10 Gy of ionizing radiation (IR) and then cultured for an additional ten days. Proliferating and senescent WI-38 cells were seeded in triplicate overnight at 2×10^5 cells/well (in 6 well plates) to achieve ˜-60% confluence by the next day. Cells were then treated with the extracts for times indicated.
# In 24-well plates, cells were treated with multiple dilutions (1:200 and 1:500) of Harpagophytum procumbens (Devil's Claw) (herb to menstruum ratio, 1:3), Uncaria tomentosa (Cat's Claw) (herb to menstruum ratio, 1:3), Zingiber officinale Rosc. […]
# MTT cell viability: The MTT assay (BioVision Milpitas, CA) was carried out following the manufacturer's protocol. […] The absorbance was measured at 590 nm using Enspire, Perkin Elmer Multimode plate reader.
# Four plant extracts were screened for senolytic activity, including extracts from Harpagophytum procumbens (Devil's Claw), Uncaria tomentosa (Cat's Claw), Zingiber officinale Rosc. […] In FIG. 8B, the impact on ginger extract on proliferating and senescent cells on cell survival was assessed by the MTT cell viability assay.
smiles,measurement,setting,value
COc1cc(CCC(C)=O)ccc1O [zingerone],senolytic activity (selective decrease of viability of senescent cells),[1]; 72 h,only 6-shogaol and gingerenone A displayed senolytic activity
CCCCCCC/C=C/C(=O)CCc1ccc(O)c(OC)c1 [8-shogaol],senolytic activity (selective decrease of viability of senescent cells),[1]; 72 h,only 6-shogaol and gingerenone A displayed senolytic activity
CCCCC[C@H](O)CC(=O)CCc1ccc(O)c(OC)c1 [6-gingerol],senolytic activity (selective decrease of viability of senescent cells),[1]; 72 h,only 6-shogaol and gingerenone A displayed senolytic activity
CCCCC/C=C/C(=O)CCc1ccc(O)c(OC)c1 [6-shogaol],senescent cell viability,[1]; 48 h,moderate degree of cell death
same,senolytic activity (selective decrease of viability of senescent cells),[1]; 72 h,displayed senolytic activity
same,changes in any of the cytokines and chemokines measured,"[2]; 24 h, 72.4 nM",did not induce major changes
same,expression of anti-apoptotic protein Bcl-XL,[3],reduced
same,levels of pro-apoptotic protein cleaved caspase-3,[3],increase
same,effect on proliferating (non-irradiated) cells,[4],significant increase
CCCCCCCCC[C@H](O)CC(=O)CCc1ccc(O)c(OC)c1 [10-gingerol],senolytic activity (selective decrease of viability of senescent cells),[1]; 72 h,only 6-shogaol and gingerenone A displayed senolytic activity
CCCCCCC[C@H](O)CC(=O)CCc1ccc(O)c(OC)c1 [8-gingerol],senolytic activity (selective decrease of viability of senescent cells),[1]; 72 h,only 6-shogaol and gingerenone A displayed senolytic activity
"COc1cc(CC/C=C/C(=O)CCc2ccc(O)c(OC)c2)ccc1O [gingerenone A, Gingerenone A]",senescent cell viability relative to proliferating cells,"[1]; 20 μM, 48 h",significant decrease; also recorded: significantly decreased
same,selectivity for senescent over proliferating cells,"[1]; 48 h, 20 μM, compared to D+Q",higher selectivity compared to D+Q
same,senescent cell viability,[1]; 48 h,significantly decreased
same,senolytic activity (selective decrease of viability of senescent cells),[1]; 72 h,displayed senolytic activity
same,IC50,"[1]; Homo sapiens, WI-38, light or radiation study, dose response 2.5-100 μM, 72 h, 10 days post-irradiation",19.6 ± 2.1 µM
same,level of anti-inflammatory cytokine IL-13,"[2]; 24 h, FIG. 13A",increased
same,level of pro-inflammatory cytokine IL-8,"[2]; 24 h, FIG. 13A",increased
same,level of IL-10,"[2]; 24 h, V-plex, FIG. 13A",unchanged
same,"level of IL-10, listed with IL-8 as pro-inflammatory cytokine","[2]; 24 h, V-plex, FIG. 13A",increased
same,secreted level of interferon γ-induced protein 10 (IP-10),"[2]; 24 h, V-plex, FIG. 13B",reduced
same,level of anti-inflammatory cytokine IL-10,"[2]; 24 h, multiplex ELISA (Bio-plex), FIG. 12A",increase
same,secreted level of CCL2 (MCP-1),"[2]; 24 h, gingerenone A 20 μM, D+Q",reduced
same,secreted level of IL-6,"[2]; 24 h, gingerenone A 20 μM, D+Q",reduced
same,secretion of pro-inflammatory SASP cytokine IL-1B,[2]; senescent cells,increase
same,p53 levels,[3]; proliferating and senescent cells,did not increase
same,expression of anti-apoptotic protein Bcl-XL,[3],reduced
same,levels of pro-apoptotic protein cleaved caspase-3,[3],increase
same,effect on proliferating (non-irradiated) cells,[4],did not show any significant effect
